In paper PMC2675279 (The Journal of general virology, 2009):

The substances below were run on splenocytes from BALB/c mice infected with tk--HSV-2 (assay: IFN-γ ELISPOT, splenocytes after intravaginal tk--HSV-2 infection). Conditions: splenocytes from individual BALB/c mice after non-lethal intravaginal infection with live attenuated HSV-2, single peptides at 1 μg mL^-1 (Concanavalin A 2.5 μg mL^-1), means of duplicates.
Assay type: cell-based

Row | Substance | SFU per 10^6 responder cells, tk--HSV-2 infected mice
1 | Concanavalin A [reference compound] | TNTC ^‡
2 | LLYWPGVRALLGR [UL47 369-381] | 21 SFU per 10^6 responder cells
3 | HTALATVTLKYAL [UL47 509-521] | 25 SFU per 10^6 responder cells
4 | YAGRMTYIATGAL [UL47 389-401] | 43 SFU per 10^6 responder cells
